From ChEMBL document CHEMBL1201862, “PubChem BioAssay data set” (2004)
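Grown in 96-well plates, cells were treated for 48 hours with each compound at five concentrations. Insufficient inhibition: endpoint recorded as highest concentration tested. GI50 = concentration required for 50% inhibition of growth.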 The source made the active and inactive calls. Rule as the data show it: active = GI50 up to about 1.1 µM and inactive = higher.

Assays:
Assay in all cases: NCI anticancer screen, dose series, 48 h
786-0 = test system: 786-0
A498 = test system: A498
ACHN = test system: ACHN
CCRF-CEM = test system: CCRF-CEM
HCC 2998 = test system: HCC 2998
HCT-15 = test system: HCT-15
HOP-92 = test system: HOP-92
K562 = test system: K562
LOX IMVI = test system: LOX IMVI
M14 = test system: M14
NCI-H460 = test system: NCI-H460
NCI-H522 = test system: NCI-H522
OVCAR-5 = test system: OVCAR-5
OVCAR-8 = test system: OVCAR-8
RXF 393 = test system: RXF 393
SK-MEL-28 = test system: SK-MEL-28
SK-MEL-2 = test system: SK-MEL-2
SNB-75 = test system: SNB-75
U-251 = test system: U-251
UACC-62 = test system: UACC-62

Row | Structure (SMILES) | GI50 (786-0) | GI50 (A498) | GI50 (ACHN) | GI50 (CCRF-CEM) | GI50 (HCC 2998) | GI50 (HCT-15) | GI50 (HOP-92) | GI50 (K562) | GI50 (LOX IMVI) | GI50 (M14) | GI50 (NCI-H460) | GI50 (NCI-H522) | GI50 (OVCAR-5) | GI50 (OVCAR-8) | GI50 (RXF 393) | GI50 (SK-MEL-28) | GI50 (SK-MEL-2) | GI50 (SNB-75) | GI50 (U-251) | GI50 (UACC-62)
1 | Cc1c[n+]2c3ccccc3c3ccccc3c2s1.[O-][Cl+3]([O-])([O-])[O-] | 3.37 µM (inactive) | 55.6 µM (inactive) | 42.6 µM (inactive) | 4.1 µM (inactive) | 3.2 µM (inactive) | > 100 µM | 16.6 µM (inactive) | 4.29 µM (inactive) | 15.2 µM (inactive) | 17.4 µM (inactive) | 5.94 µM (inactive) | 1.73 µM (inactive) | 1.77 µM (inactive) | 3.3 µM (inactive) | 0.043 µM (active) | 2.25 µM (inactive) | 12.4 µM (inactive) | 3.31 µM (inactive) | 0.368 µM (active) | 14.1 µM (inactive)
2 | CC(C)(C)OC(=O)NCC(=O)N(CCc1ccc(Cl)c(Cl)c1)CCN1CCCC1 | 14 µM (inactive) | 17.8 µM (inactive) | 19.5 µM (inactive) | 10.6 µM (inactive) | 5.14 µM (inactive) | 17.7 µM | 3.78 µM (inactive) | 8.11 µM (inactive) | 14.6 µM (inactive) | 14.3 µM (inactive) | 15.8 µM (inactive) | 14.5 µM (inactive) | 18.9 µM (inactive) | 18 µM (inactive) | 14.9 µM (inactive) | 13 µM (inactive) | 16.9 µM (inactive) | 17.5 µM (inactive) | 15.2 µM (inactive) | 17.4 µM (inactive)
3 | C[C@]12CCC3c4ccc(OC(=O)c5ccccc5)cc4CC[C@H]3C1CC[C@@H]2OC(=O)C12OC1CCC2=O (stereo not given in full) | 2.67 µM (inactive) | 6.04 µM (inactive) | 5.27 µM (inactive) | 0.959 µM (active) | 23.7 µM (inactive) | 5.55 µM | 19.7 µM (inactive) | 2.07 µM (inactive) | 3.33 µM (inactive) | 5.79 µM (inactive) | 4.26 µM (inactive) | 2.31 µM (inactive) | 8.38 µM (inactive) | 4.53 µM (inactive) | 2.41 µM (inactive) | 6.11 µM (inactive) | 7.94 µM (inactive) | 13.7 µM (inactive) | 2.8 µM (inactive) | 15.6 µM (inactive)
4 | CC1(O)C(C)(O)C(C)(O)C1(C)O (stereo not given) | > 100 µM (inactive) | > 100 µM (inactive) | > 100 µM (inactive) | > 100 µM (inactive) | > 100 µM (inactive) | > 100 µM | > 100 µM (inactive) | > 100 µM (inactive) | > 100 µM (inactive) | > 100 µM (inactive) | > 100 µM (inactive) | > 100 µM (inactive) | > 100 µM (inactive) | > 100 µM (inactive) | > 100 µM (inactive) | > 100 µM (inactive) | > 100 µM (inactive) | > 100 µM (inactive) | > 100 µM (inactive) | > 100 µM (inactive)
5 | CCCCN(CCCC)C(=O)C(=O)CC(=O)/C=C/c1ccccc1 | > 100 µM (inactive) | > 100 µM (inactive) | > 100 µM (inactive) | > 100 µM (inactive) | > 100 µM (inactive) | > 100 µM | > 100 µM (inactive) | > 100 µM (inactive) | > 100 µM (inactive) | > 100 µM (inactive) | > 100 µM (inactive) | > 100 µM (inactive) | > 100 µM (inactive) | > 100 µM (inactive) | > 100 µM (inactive) | > 100 µM (inactive) | > 100 µM (inactive) | > 100 µM (inactive) | > 100 µM (inactive) | > 100 µM (inactive)
6 | O=C(N/C(=C\c1ccccc1)C1Nc2ccccc2C(=O)O1)c1ccccc1 (stereo not given) | 24.5 µM (inactive) | > 100 µM (inactive) | 39.5 µM (inactive) | 19.1 µM (inactive) | 19.8 µM (inactive) | 31.8 µM | > 100 µM (inactive) | 21.5 µM (inactive) | 18.2 µM (inactive) | 20.2 µM (inactive) | 16.6 µM (inactive) | 16.3 µM (inactive) | > 100 µM (inactive) | 21.4 µM (inactive) | 23.6 µM (inactive) | 23.7 µM (inactive) | 22.5 µM (inactive) | 38.8 µM (inactive) | 22.4 µM (inactive) | 27.5 µM (inactive)
7 | CC1CN=C(Nc2ccc(F)c(Cl)c2)S1 (stereo not given) | > 100 µM (inactive) | 62.8 µM (inactive) | > 100 µM (inactive) | 29.7 µM (inactive) | > 100 µM (inactive) | 83.4 µM | 28.9 µM (inactive) | 62.1 µM (inactive) | 86.7 µM (inactive) | > 100 µM (inactive) | > 100 µM (inactive) | 58.2 µM (inactive) | > 100 µM (inactive) | > 100 µM (inactive) | 37.6 µM (inactive) | > 100 µM (inactive) | > 100 µM (inactive) | > 100 µM (inactive) | 95.3 µM (inactive) | > 100 µM (inactive)
8 | CC(=O)O[C@H]1[C@@H](N2CCOCC2)C[C@H]2[C@@H]3CC=C4C[C@@H](N5CCCC5)CC[C@]4(C)[C@H]3CC[C@@]21C | > 100 µM (inactive) | > 100 µM (inactive) | > 100 µM (inactive) | > 100 µM (inactive) | 48.8 µM (inactive) | > 100 µM | 85.9 µM (inactive) | 24 µM (inactive) | > 100 µM (inactive) | 35.4 µM (inactive) | > 100 µM (inactive) | > 100 µM (inactive) | > 100 µM (inactive) | > 100 µM (inactive) | > 100 µM (inactive) | > 100 µM (inactive) | > 100 µM (inactive) | > 100 µM (inactive) | > 100 µM (inactive) | > 100 µM (inactive)
9 | Fc1c(F)c(F)c2c(c1F)CSc1nc3ccccc3n1-2 | > 100 µM (inactive) | > 100 µM (inactive) | > 100 µM (inactive) | > 100 µM (inactive) | > 100 µM (inactive) | > 100 µM | > 100 µM (inactive) | > 100 µM (inactive) | > 100 µM (inactive) | > 100 µM (inactive) | > 100 µM (inactive) | > 100 µM (inactive) | > 100 µM (inactive) | > 100 µM (inactive) | > 100 µM (inactive) | > 100 µM (inactive) | > 100 µM (inactive) | > 100 µM (inactive) | > 100 µM (inactive) | > 100 µM (inactive)
10 | C#C[C@]1(O)CC[C@H]2[C@@H]3CCC4=C/C(=N\OCCN5CCCCC5)CC[C@]4(C)[C@H]3CC[C@@]21C | 3.63 µM (inactive) | 6.15 µM (inactive) | 8.3 µM (inactive) | 4.54 µM (inactive) | 12.8 µM (inactive) | 7.31 µM | 15 µM (inactive) | 1.65 µM (inactive) | 3.58 µM (inactive) | 3.27 µM (inactive) | 6.78 µM (inactive) | 2.47 µM (inactive) | 13.5 µM (inactive) | 8.02 µM (inactive) | 2.86 µM (inactive) | 8.13 µM (inactive) | 2.77 µM (inactive) | 4.3 µM (inactive) | 9.68 µM (inactive) | 3.32 µM (inactive)
